Laboratory results: US11278548B2, “Methods and compositions for reducing side effects in chemotherapeutic treatments” (Galderma Research and Development, priority 2017, dated 2022)
“Also recorded” adds a separate entry of the source.

System: acneiform rash

Brc1c(NC2=NCCN2)ccc2nccnc12 [brimonidine, (5-bromo-quinoxalin-6-yl)-(4,5-dihydro-1H-imidazol-2-yl)-amine]
treated patients with a decrease in rash severity (18 EGFRI-treated patients, CTCAE v4.0 grading, followed for 12 to 24 weeks, n=17, most also on antibiotics or corticosteroids): 94% | adverse events to brimonidine (18 EGFRI-treated patients, followed for 12 to 24 weeks): not reported; also recorded: no adverse events | acneiform rash outcome (in words) (EGFRI-treated patients, 83% also receiving systemic antibiotics, topical antibiotics or corticosteroids): improvement in acneiform rash in all patients | dose modification of anticancer therapies (majority of treated patients): did not require dose modification
